Measurements taken from patent US7179825B2, “Retinoic acid mimetic anilides” (Janssen Pharmaceutica N.V., priority 1997, dated 2007).

Legend:
[1] = system: metabolism of retinoic acid in human breast cancer cells; assay: Inhibition of retinoic acid (RA) metabolism (Example C.1); format: cell-based; conditions: MCF-7 human breast cancer cells, 3H-RA as substrate; concentration needed to reduce the amount of metabolites to 50% of the control
Procedure, shortened: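 Test compound (in 1% DMSO) added at several concentrations to MCF-7 cell suspensions fed ³H-RA, after RA induction of metabolism one day earlier. Scintillation counting of the separated polar metabolite fraction; IC50 = concentration giving 50% of control metabolite level.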

Ovariectomized rats = assay: Vaginal keratinization test on ovariectomized rats (Example C.2); format: in vivo; conditions: estradiol undecylate induced keratinization, per os once daily on days 1-3, active dose = 50% of rats show complete suppression
Procedure, shortened: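 Value is the lowest oral dose (mg/kg) at which half of tested rats show complete suppression of estradiol undecylate-induced vaginal keratinization by histology. Ovariectomized rats received 100 μg/100 g estradiol undecylate s.c., then compound or PEG 200 vehicle p.o. daily for three days; sacrifice one day later.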

Compound	IC50 [1] [nM]	LAD (lowest active dose) (Ovariectomized rats) [mg/kg]
CC(Oc1ccccc1)C(c1ccc(NC(=O)Cc2ccc(Cl)cc2)cc1)n1ccnc1 (single isomer, unassigned) [Compound 370]	83.4	>10.00
CC(Sc1ccccc1)C(c1ccc(NC(=O)Cc2ccc(Cl)cc2)cc1)n1ccnc1 (single isomer, unassigned) [Compound 376]	< 0.1	2.50
CCN(CC)C(C)C(c1ccc(NC(=O)Cc2ccc(OC)c(OC)c2)cc1)n1ccnc1 (single isomer, unassigned) [Compound 383]	0.729	>2.50
CCCCCC(C)C(c1ccc(NC(=O)Cc2ccc(OC)c(OC)c2)cc1)n1ccnc1 (single isomer, unassigned) [Compound 385]	6.75	>2.50
COc1ccc(CC(=O)Nc2ccc(C(C(C)CN3CCCCC3)n3ccnc3)cc2)cc1OC (single isomer, unassigned) [Compound 389]	0.0567	>2.50
CCC(C(c1ccc(NC(=O)Cc2ccc(OC)c(OC)c2)cc1)n1ccnc1)N(C)C (single isomer, unassigned) [Compound 393]	0.955	5.00
COCC(C)C(c1ccc(NC(=O)Cc2ccc(OC)c(OC)c2)cc1)n1ccnc1 (single isomer, unassigned) [Compound 405]	3.68	5.00
COc1ccc(CC(=O)Nc2ccc(C(C(C)N3CCN(C)CC3)n3ccnc3)cc2)cc1OC.O (single isomer, unassigned) [Compound 412]	3.99	>2.50
CCCN(C)C(C)C(c1ccc(NC(=O)Cc2ccc(OC)c(OC)c2)cc1)n1ccnc1 (single isomer, unassigned) [Compound 413]	5.27	5.00
CCN(C)C(C)C(c1ccc(NC(=O)Cc2ccc(OC)c(OC)c2)cc1)n1ccnc1 (single isomer, unassigned) [Compound 416]	0.367	>5.00
C/C(=C\c1ccccc1)C(=O)Nc1ccc(C(C(C)C)n2ccnc2)cc1 (single isomer, unassigned) [Compound 458]	3.22	5.00
CC(=Cc1ccccc1)C(=O)Nc1ccc(C(C(C)C)n2ccnc2)cc1 (single isomer, unassigned) [Compound 459]	17.7	20.00
CCCC(C)C(c1ccc(NC(=O)/C(C)=C/c2ccccc2)cc1)n1ccnc1 (single isomer, unassigned) [Compound 482]	1.95	10.00
CC(=Cc1ccccc1)C(=O)Nc1ccc(C(C(C)Sc2ccccc2)n2ccnc2)cc1 (single isomer, unassigned) [Compound 483]	19.8	>5.00
CC(=Cc1ccccc1)C(=O)Nc1ccc(C(C(C)Sc2ccccc2)n2ccnc2)cc1 (single isomer, unassigned) [Compound 484]	3.43	>5.00
CC(=Cc1ccccc1)C(=O)Nc1ccc(C(C(C)c2ccccc2)n2ccnc2)cc1 (single isomer, unassigned) [Compound 489]	> 100	2.50
C/C(=C\c1ccccc1)C(=O)Nc1ccc(C(C(C)c2ccccc2)n2ccnc2)cc1 (single isomer, unassigned) [Compound 490]	> 100	2.50
CCCCCC(CC)C(c1ccc(NC(=O)C(C)=Cc2ccccc2)cc1)n1ccnc1 (single isomer, unassigned) [Compound 492]	4.07	>2.50
CCC(C(c1ccc(NC(C)=O)cc1)n1ccnc1)N(C)C (single isomer, unassigned) [Compound 558]	1.32	>5.00
CCC(C(c1ccc(NC(C)=O)cc1)n1cncn1)N(C)C (single isomer, unassigned) [Compound 645]	8.02	>5.00
CCC(C(c1ccc(NC(=O)Cc2ccc(OC)c(OC)c2)cc1)n1cncn1)N(C)C (single isomer, unassigned) [Compound 646]	3.07	5.00
CCN(CC)C(C)C(c1ccc(NC(=O)Cc2ccc(OC)c(OC)c2)cc1)n1cncn1 (single isomer, unassigned) [Compound 649]	7.32	5.00
CCC(CC)C(c1ccc(NC(=O)Cc2ccc(C)c(OC)c2)cc1)n1cncn1 (single isomer, unassigned) [Compound 782]	1.26	2.50
CCC(CC)C(c1ccc(NC(=O)Cc2ccc(C)c(OC)c2)cc1)n1cncn1 (single isomer, unassigned) [Compound 783]	39.8	5.00
CCC(CC)C(c1ccc(NC(=O)C(O)c2ccc(Cl)cc2)cc1)n1cncn1 (stereo not shown) [Compound 4]	2.11	0.60
CCC(CC)C(c1ccc(NC(=O)CCCc2ccc(OC)c(OC)c2)cc1)n1cncn1 (stereo not shown) [Compound 8]	0.0937	>2.50
CCC(CC)C(c1ccc(NC(=O)Cc2ccc3nc(N)sc3c2)cc1)n1cncn1 (stereo not shown) [Compound 13]	0.0357	>2.50

Compound	IC50 [1] [nM]	LAD (lowest active dose) (Ovariectomized rats) [mg/kg]
CCC(CC)C(c1ccc(NC(=O)C2CCc3ccccc3O2)cc1)n1ccnc1 (stereo not shown) [Compound 29]	8.12	5.00
CCC(CC)C(c1ccc(NC(=O)C2Oc3ccccc3O2)cc1)n1ccnc1 (stereo not shown) [Compound 34]	1.03	2.50
CCC(CC)C(c1ccc(NC(=O)Cc2ccc(-c3ccccc3)cc2)cc1)n1ccnc1 (stereo not shown) [Compound 41]	1.98	2.50
CCC(CC)C(c1ccc(NC(=O)C(SC)c2ccccc2)cc1)n1ccnc1 (stereo not shown) [Compound 50]	7.44	2.50
CCC(CC)C(c1ccc(NC(=O)C(O)c2ccc(OC)c(OC)c2)cc1)n1ccnc1 (stereo not shown) [Compound 56]	0.0251	>5.00
CCC(CC)C(c1ccc(NC(=O)Cc2ccc(OCc3ccncc3)cc2)cc1)n1ccnc1 (stereo not shown) [Compound 127]	0.0285	>2.50
CCOc1cc(CC(=O)Nc2ccc(C(C(CC)CC)n3ccnc3)cc2)ccc1OCc1ccccc1 (stereo not shown) [Compound 128]	0.0181	5.00
CCC(CC)C(c1ccc(NC(=O)Cc2ccc(O)cc2C)cc1)n1ccnc1 (stereo not shown) [Compound 129]	0.0236	2.50
CCC(CC)C(c1ccc(NC(=O)Cc2ccc(OCc3cccnc3)cc2)cc1)n1ccnc1 (stereo not shown) [Compound 130]	0.0109	5.00
CC(C)C(c1ccc(NC(=O)Cc2ccc(Cl)cc2)cc1)n1cncn1 (stereo not shown) [Compound 131]	4.1	5.00
CC(C)C(c1ccc(NC(=O)Cc2ccc(F)cc2)cc1)n1cncn1 (stereo not shown) [Compound 132]	4.49	5.00
Cc1ccc(CC(=O)Nc2ccc(C(C(C)C)n3cncn3)cc2)cc1 (stereo not shown) [Compound 133]	4.56	>5.00
CC(C)C(c1ccc(NC(=O)Cc2ccc(O)cc2)cc1)n1cncn1 (stereo not shown) [Compound 134]	2.98	5.00
CCOc1ccc(CC(=O)Nc2ccc(C(C(C)C)n3cncn3)cc2)cc1 (stereo not shown) [Compound 135]	1.43	2.50
COc1ccc(CC(=O)Nc2ccc(C(C(C)C)n3cncn3)cc2)cc1OC.O (stereo not shown) [Compound 136]	4.83	5.00
CC(C)C(c1ccc(NC(=O)Cc2cccc(O)c2)cc1)n1cncn1 (stereo not shown) [Compound 137]	1.85	>5.00
COc1cc(CC(=O)Nc2ccc(C(C(C)C)n3cncn3)cc2)ccc1O (stereo not shown) [Compound 138]	6.38	>5.00
COc1cc(CC(=O)Nc2ccc(C(C(C)C)n3ccnc3)cc2)cc(OC)c1OC (stereo not shown) [Compound 139]	1.75	10.00
COc1ccc(CC(=O)Nc2ccc(C(C(C)C)n3ccnc3)cc2)cc1OC (stereo not shown) [Compound 140]	21.5	5.00
CC(C)C(c1ccc(NC(=O)Cc2ccc(Cl)cc2Cl)cc1)n1ccnc1 (stereo not shown) [Compound 141]	1.31	>10.00
COc1cc(CC(=O)Nc2ccc(C(C(C)C)n3ccnc3)cc2)ccc1O (stereo not shown) [Compound 142]	31.1	5.00
CC(C)C(c1ccc(NC(=O)Cc2ccc(Cl)c(Cl)c2)cc1)n1ccnc1 (stereo not shown) [Compound 143]	4.08	10.00
CC(C)C(c1ccc(NC(=O)Cc2ccc(N)c(I)c2)cc1)n1ccnc1 (stereo not shown) [Compound 148]	1.86	>5.00
CC(C)C(c1ccc(NC(=O)Cc2ccc([N+](=O)[O-])cc2)cc1)n1ccnc1 (stereo not shown) [Compound 151]	2.11	5.00
CC(C)C(c1ccc(NC(=O)Cc2ccc(N)cc2)cc1)n1ccnc1 (stereo not shown) [Compound 152]	5.18	>5.00
C/C(=C\c1ccncc1)C(=O)Nc1ccc(C(C(C)C)n2cncn2)cc1 (stereo not shown) [Compound 158]	> 100	>10.00
